From ChEMBL document CHEMBL1909046, “DrugMatrix in vitro pharmacology data”
*1 amine or outer side, *2 acyl side, *3 side chain or, on linkers, in order; H or OH if unused. Where a SMILES comes first, the peptide text is derived from it. Bridges are numbered along the chain shown (N, C = ends). Roman numbers before positions name the chains, in order. [ ]: non-standard residue; d: D form. Actinocin(1to9) = Cc1c2oc3c(C)ccc(C(=O)[*:2])c3nc-2c(C(=O)[*:1])c(N)c1=O; NMeV = CN[C@H](C(=O)O)C(C)C; Sar = CNCC(=O)O

Columns and labels:
[1] = DRUGMATRIX: Sodium/nucleoside co-transporter radioligand binding (ligand: nitrobenzylthioinosine); format: cell membranes, Cavia porcellus, Dunkin-Hartley, Cerebral cortex, Membrane; conditions: Not Active = under 50% inhibition at 10 µM
[2] = molecular target: Substance-P receptor (Homo sapiens, UniProt P25103); format: cell membranes, CHO, Membrane; conditions: cho; note: in other assays of this panel Not Active means under 50% inhibition at 10 µM
Substance-P receptor, sequence (P25103 whole entry): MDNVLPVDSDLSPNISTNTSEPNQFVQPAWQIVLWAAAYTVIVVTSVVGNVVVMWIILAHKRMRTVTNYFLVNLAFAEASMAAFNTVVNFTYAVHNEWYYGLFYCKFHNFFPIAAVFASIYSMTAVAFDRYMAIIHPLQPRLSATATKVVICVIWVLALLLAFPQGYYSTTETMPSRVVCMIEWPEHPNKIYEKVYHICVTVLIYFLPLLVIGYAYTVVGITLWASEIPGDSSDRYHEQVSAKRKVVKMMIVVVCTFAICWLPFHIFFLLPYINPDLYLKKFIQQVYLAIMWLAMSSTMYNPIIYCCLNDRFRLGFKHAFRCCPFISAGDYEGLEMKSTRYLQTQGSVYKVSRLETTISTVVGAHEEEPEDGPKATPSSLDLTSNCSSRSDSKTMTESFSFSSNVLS

[3] = molecular target: T1, C-X-C chemokine receptor type 1 (Homo sapiens, UniProt P25024); note: in other assays of this panel Not Active means under 50% inhibition at 10 µM
T1 sequence (P25024 whole entry): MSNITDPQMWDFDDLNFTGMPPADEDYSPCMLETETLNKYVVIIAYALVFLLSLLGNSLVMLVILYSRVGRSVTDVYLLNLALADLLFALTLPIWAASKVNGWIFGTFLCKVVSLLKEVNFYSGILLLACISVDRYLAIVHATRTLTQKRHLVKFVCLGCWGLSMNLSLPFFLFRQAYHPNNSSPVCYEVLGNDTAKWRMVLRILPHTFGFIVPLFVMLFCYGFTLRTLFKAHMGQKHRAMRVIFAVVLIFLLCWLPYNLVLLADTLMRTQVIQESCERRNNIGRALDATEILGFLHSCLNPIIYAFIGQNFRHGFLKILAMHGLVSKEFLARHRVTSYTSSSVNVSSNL

[4] = molecular target: D(1A) dopamine receptor (Homo sapiens, UniProt P21728); assay: DRUGMATRIX: Dopamine D1 radioligand binding (ligand: [3H] SCH-23390); format: cell membranes, CHO, Membrane; conditions: cho; Not Active = under 50% inhibition at 10 µM
D(1A) dopamine receptor, sequence (P21728 whole entry): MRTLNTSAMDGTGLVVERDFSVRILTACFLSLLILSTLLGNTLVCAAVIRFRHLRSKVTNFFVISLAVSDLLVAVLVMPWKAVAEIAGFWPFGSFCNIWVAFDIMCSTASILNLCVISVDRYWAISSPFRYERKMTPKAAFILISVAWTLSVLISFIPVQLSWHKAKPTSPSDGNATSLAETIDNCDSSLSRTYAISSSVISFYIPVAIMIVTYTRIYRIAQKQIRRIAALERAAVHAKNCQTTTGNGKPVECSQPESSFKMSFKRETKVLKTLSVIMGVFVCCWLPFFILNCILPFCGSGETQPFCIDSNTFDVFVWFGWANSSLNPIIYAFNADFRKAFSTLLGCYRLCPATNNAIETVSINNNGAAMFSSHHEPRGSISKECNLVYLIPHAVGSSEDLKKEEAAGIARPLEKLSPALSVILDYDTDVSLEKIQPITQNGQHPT

[5] = molecular target: T2, D(4) dopamine receptor (Homo sapiens, UniProt P21917); assay: DRUGMATRIX: Dopamine D4.2 radioligand binding (ligand: [3H] Spiperone); format: cell membranes, CHO-K1, Membrane; conditions: cho-k1; Not Active = under 50% inhibition at 10 µM
T2 sequence (P21917 whole entry): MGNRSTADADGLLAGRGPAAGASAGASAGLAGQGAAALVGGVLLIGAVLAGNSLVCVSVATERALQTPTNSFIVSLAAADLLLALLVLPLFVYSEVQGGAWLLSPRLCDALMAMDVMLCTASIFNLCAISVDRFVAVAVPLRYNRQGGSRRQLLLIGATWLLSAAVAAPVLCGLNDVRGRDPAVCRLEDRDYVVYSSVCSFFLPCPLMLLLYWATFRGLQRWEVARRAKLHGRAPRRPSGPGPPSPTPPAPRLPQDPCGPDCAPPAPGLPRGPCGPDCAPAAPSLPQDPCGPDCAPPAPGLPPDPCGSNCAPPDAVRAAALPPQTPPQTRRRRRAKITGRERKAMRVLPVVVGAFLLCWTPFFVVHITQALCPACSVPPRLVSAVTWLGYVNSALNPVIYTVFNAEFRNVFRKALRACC

[6] = molecular target: T3, Muscarinic acetylcholine receptor M2 (Homo sapiens, UniProt P08172); format: cell membranes, CHO-K1, Membrane; conditions: cho-k1; note: in other assays of this panel Not Active means under 50% inhibition at 10 µM
T3 sequence (P08172 whole entry): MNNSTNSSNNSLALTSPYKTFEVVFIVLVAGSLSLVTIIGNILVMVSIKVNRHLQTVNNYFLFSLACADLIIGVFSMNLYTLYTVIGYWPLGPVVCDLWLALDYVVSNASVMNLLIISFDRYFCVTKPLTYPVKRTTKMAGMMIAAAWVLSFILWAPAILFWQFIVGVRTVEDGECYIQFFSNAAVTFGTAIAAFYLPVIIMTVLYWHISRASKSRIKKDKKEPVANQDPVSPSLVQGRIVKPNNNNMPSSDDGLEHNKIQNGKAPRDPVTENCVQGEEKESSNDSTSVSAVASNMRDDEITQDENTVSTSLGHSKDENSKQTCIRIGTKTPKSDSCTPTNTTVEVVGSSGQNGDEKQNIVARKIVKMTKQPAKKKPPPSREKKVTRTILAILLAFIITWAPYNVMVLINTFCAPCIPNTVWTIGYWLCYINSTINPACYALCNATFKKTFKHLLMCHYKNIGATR

[7] = molecular target: Epidermal growth factor receptor (Homo sapiens, UniProt P00533); assay: DRUGMATRIX: Protein Tyrosine Kinase, EGF Receptor enzyme inhibition (substrate: Poly(Glu:Tyr)); format: cell-based, Insect cells; conditions: insect cells, Not Active = under 50% inhibition at 10 µM

| Compound | IC50 [1] | Ki [1] | IC50 [2] | IC50 [3] | IC50 [4] | IC50 [5] | IC50 [6] | IC50 [7] | Ki [2] | Ki [3] | Ki [4] | Ki [5] | Ki [6] | IC50 ([7]; read-out: IC50) |
| --- | --- | --- | --- | --- | --- | --- | --- | --- | --- | --- | --- | --- | --- | --- |
| CCC1(c2ccc(N)cc2)CCC(=O)NC1=O (configuration not stated) [AMINOGLUTETHIMIDE] | Not Active | Not Active | Not Active | Not Active | Not Active | Not Active | Not Active | Not Active |  |  |  |  |  |  |
| Cc1ccc(/N=C/N(C)/C=N/c2ccc(C)cc2C)c(C)c1 [AMITRAZ] | Not Active | Not Active | Not Active | Not Active | Not Active | Not Active | Not Active | Not Active |  |  |  |  |  |  |
| C[C@H](CS)C(=O)N1CCC[C@H]1C(=O)O [CAPTOPRIL] | Not Active | Not Active | Not Active | Not Active | Not Active | Not Active | Not Active | Not Active |  |  |  |  |  |  |
| Clc1cccc(Cl)c1NC1=NCCN1 [CLONIDINE] | Not Active | Not Active | Not Active | Not Active | Not Active | Not Active | Not Active | Not Active |  |  |  |  |  |  |
| CCCCN1CCCC[C@H]1C(=O)Nc1c(C)cccc1C [LEVOBUPIVACAINE] | Not Active | Not Active | Not Active | Not Active | Not Active | Not Active | Not Active | Not Active |  |  |  |  |  |  |
| OC(Cn1cncn1)(Cn1cncn1)c1ccc(F)cc1F [FLUCONAZOLE] | Not Active | Not Active | Not Active | Not Active | Not Active | Not Active | Not Active | Not Active |  |  |  |  |  |  |
| CCCC1O[C@@H]2C[C@H]3[C@@H]4CCC5=CC(=O)C=C[C@]5(C)[C@H]4[C@@H](O)C[C@]3(C)[C@]2(C(=O)CO)O1 (some centres not stated) [BUDESONIDE] | Not Active | Not Active | Not Active | Not Active | Not Active | Not Active | Not Active | Not Active |  |  |  |  |  |  |
| Cc1cc(C2CCCCC2)n(O)c(=O)c1 [CICLOPIROX] | Not Active | Not Active | Not Active | Not Active | Not Active | Not Active | Not Active | Not Active |  |  |  |  |  |  |
| Cc1c(C)c2c(c(C)c1O)CC[C@@](C)(CCC[C@H](C)CCC[C@H](C)CCCC(C)C)O2 [ALPHA-TOCOPHEROL] | Not Active | Not Active | Not Active | Not Active | Not Active | Not Active | Not Active | Not Active |  |  |  |  |  |  |
| Cc1c2oc3c(C)ccc(C(=O)N[C@@H]4C(=O)N[C@H](C(C)C)C(=O)N5CCC[C@H]5C(=O)N(C)CC(=O)N(C)[C@@H](C(C)C)C(=O)O[C@@H]4C)c3nc-2c(C(=O)N[C@@H]2C(=O)N[C@H](C(C)C)C(=O)N3CCC[C@H]3C(=O)N(C)CC(=O)N(C)[C@@H](C(C)C)C(=O)O[C@@H]2C)c(N)c1=O [DACTINOMYCIN] (I: T[dV]P[Sar][NMeV] / II: T[dV]P[Sar][NMeV]; ester I:1-I:C, II:1-II:C; linker I:N-II:N via Actinocin(1to9)) | Not Active | Not Active | Not Active | Not Active | Not Active | Not Active | Not Active | Not Active |  |  |  |  |  |  |
| CC1(C)S[C@@H]2[C@H](NC(=O)Cc3ccccc3)C(=O)N2[C@H]1C(=O)O [PENICILLIN G] | Not Active | Not Active | Not Active | Not Active | Not Active | Not Active | Not Active | Not Active |  |  |  |  |  |  |
| C[C@H](CCC(=O)O)[C@H]1CC[C@H]2[C@@H]3[C@H](O)C[C@@H]4C[C@H](O)CC[C@]4(C)[C@H]3C[C@H](O)[C@]12C [CHOLIC ACID] | Not Active | Not Active | Not Active | Not Active | Not Active | Not Active | Not Active | Not Active |  |  |  |  |  |  |
| CN(Cc1ccc(C(C)(C)C)cc1)Cc1cccc2ccccc12 [BUTENAFINE] | Not Active | Not Active | Not Active | Not Active | Not Active | Not Active | Not Active | Not Active |  |  |  |  |  |  |
| N=C(N)NCCN1CCCCCCC1 [GUANETHIDINE] | Not Active | Not Active | Not Active | Not Active | Not Active | Not Active | Not Active | Not Active |  |  |  |  |  |  |
| C[C@H]1O[C@@H](O[C@H]2[C@@H](O)C[C@H](O[C@H]3[C@@H](O)C[C@H](O[C@H]4CC[C@@]5(C)[C@H](CC[C@@H]6[C@@H]5C[C@@H](O)[C@]5(C)[C@@H](C7=CC(=O)OC7)CC[C@]65O)C4)O[C@@H]3C)O[C@@H]2C)C[C@H](O)[C@@H]1O [DIGOXIN] | Not Active | Not Active | Not Active | Not Active | Not Active | Not Active | Not Active | Not Active |  |  |  |  |  |  |
| CCCCc1nc(Cl)c(CO)n1Cc1ccc(-c2ccccc2-c2nnn[nH]2)cc1 [LOSARTAN] | Not Active | Not Active | Not Active | Not Active | Not Active | Not Active | Not Active | Not Active |  |  |  |  |  |  |
| Nc1c(Br)cc(Br)cc1CN[C@H]1CC[C@H](O)CC1 [AMBROXOL] | Not Active | Not Active | Not Active | Not Active | Not Active | Not Active | Not Active | Not Active |  |  |  |  |  |  |
| CNCCc1ccccn1 [BETAHISTINE] | Not Active | Not Active | Not Active | Not Active | Not Active | Not Active | Not Active | Not Active |  |  |  |  |  |  |
| O=C(O)CCCc1ccc(N(CCCl)CCCl)cc1 [CHLORAMBUCIL] | Not Active | Not Active | Not Active | Not Active | Not Active | Not Active | Not Active | Not Active |  |  |  |  |  |  |
| NC(=O)N1c2ccccc2CCc2ccccc21 | Not Active | Not Active | Not Active | Not Active | Not Active | Not Active | Not Active | Not Active |  |  |  |  |  |  |
| NCCCCCC(=O)O [AMINOCAPROIC ACID] | Not Active | Not Active | Not Active | Not Active | Not Active | Not Active | Not Active | Not Active |  |  |  |  |  |  |
| C=C(C)C1(O)OC(=O)C=C1OC (configuration not stated) [PENICILLIC ACID] | Not Active | Not Active | Not Active | Not Active | Not Active | Not Active | Not Active | Not Active |  |  |  |  |  |  |
| CC1(C)O[C@@H]2C[C@H]3[C@@H]4CCC5=CC(=O)CC[C@]5(C)[C@@]4(F)[C@@H](O)C[C@]3(C)[C@]2(C(=O)CCl)O1 [HALCINONIDE] | Not Active | Not Active | Not Active | Not Active | Not Active | Not Active | Not Active | Not Active |  |  |  |  |  |  |
| LIPOPOLYSACCHARIDE E. COLI O55:B5 | Not Active | Not Active | Not Active | Not Active | Not Active | Not Active | Not Active |  | Not Active | Not Active | Not Active | Not Active | Not Active | 188 nM |
